From patent US5670364A, “A83543 compounds and process for production thereof” (priority 1995, dated 1997)
In brackets after ≈: the same amount, converted by molar mass.

Legend:
Two-spotted Spider Mite = assay: Mite/Insect Screen, two-spotted spider mite (TSSM); assay type: in vivo; conditions: Tetranychus urticae, 4-5 day; for inhibition at 50 ppm: 50 ppm (rate in parenthesis)
Protocol: (§1) The Formula 2 compounds were tested for miticidal and insecticidal activity in the following mite/insect screen. Each test compound was formulated by dissolving the compound in an acetone-alcohol (1:1) mixture containing 23 g of TOXIMUL R (sulfonate/nonionic emulsifier blend) and 13 g of TOXIMUL S (sulfonate/nonionic emulsifier blend) per liter. These mixtures were then diluted with water to give the indicated concentrations.
(§2) Two-spotted spider mites and cotton aphids were introduced on squash cotyledons and allowed to establish on both leaf surfaces. The leaves were then sprayed with 5 ml of test solutions using a DeVilbiss atomizing sprayer at 10 psi. Both surfaces of the leaves were covered until run off and then allowed to dry for one hour. After standard exposure periods percent mortality was evaluated. Additional insects were evaluated using similar formulations and evaluation procedures.

Aster Leafhopper = assay: Mite/Insect Screen, aster leafhopper (ALH); assay type: in vivo; conditions: Macrosteles fascifrons, 24 hr
Protocol: as §1, §2

Beet Armyworm = assay: Mite/Insect Screen, beet armyworm (BAW); assay type: in vivo, Spodoptera exiqua; conditions: Spodoptera exigua, 144 h, 6 day
Protocol: as §1, §2

Southern Corn Rootworm = assay: Mite/Insect Screen, southern corn rootworm (SCRW); assay type: in vivo, Diabrotica undecimpunctata howardi; conditions: 264 h, 11 day
Protocol: as §1, §2

neonate tobacco budworm = assay: LD50 against neonate tobacco budworm, petri dish assay; assay type: in vivo; conditions: Heliothis virescens; mean of two tests; mortality evaluated at 24 and 48 hours
Protocol: Formula 2 compounds were evaluated in the following assay to determine the LD50 against neonate tobacco budworm (Heliothis virescens). A petri dish (100 mm×20 mm) is inverted and the lid lined with a #1 qualitative filter paper. Ten neonate larvae are placed in each dish and a 1 ml test solution is pipetted onto the insects. The petri dish bottom is then placed on the lid to contain the larvae. At 1 hour after treatment, a small piece of Heliothis diet (modified slurry, Southland Products, Lake Village, AR) is added to each dish. The mortality is evaluated at 24 and 48 hours. The tests were run in triplicate.

Tobacco Budworm = assay: Mite/Insect Screen, tobacco budworm (TBW); assay type: in vivo; conditions: Heliothis virescens, 144 h, 6 day; for inhibition at 50 ppm: 50 ppm (rate in parenthesis)
Protocol: as §1, §2

Rootknot Nematode = assay: Mite/Insect Screen, rootknot nematode (NEM); assay type: in vivo, Meiiiodyne spp.; conditions: 264 h, 11 day
Protocol: as §1, §2

German Cockroach = assay: Mite/Insect Screen, German cockroach (GECR); assay type: in vivo; conditions: Blattella germanica
Protocol: as §1, §2

Cotton Aphid = assay: Mite/Insect Screen, cotton aphid (CA); assay type: in vivo, Aphis gossypii Glover; conditions: Aphis gossypii, 4-5 day
Protocol: as §1, §2

adult stable fly = assay: in vitro activity against adult stable fly; assay type: in vivo; conditions: Stomoxys calcitrans, 48 hours
Protocol: (§3) The Formula 2 compounds are also active against members of the insect order Diptera. Tables XI and XII summarize the in vitro studies of the Formula 2 compounds against blowfly larvae and adult stable fly at 48 hours.

blowfly larvae = assay: in vitro activity against blowfly larvae; assay type: in vivo; conditions: 48 hours
Protocol: as §3

[1] = test system: histamine N-methyltransferase; conditions: cited from earlier work
[2] = test system: macrocin O-methyltransferase; conditions: cited from earlier work
[3] = test system: S-adenosyl-methionine-dependent O-methyltransferase; conditions: avermectin-producing strains; cited from earlier work
[4] = test system: norepinephrine N-methyltransferase; conditions: cited from earlier work
[5] = test system: catechol O-methyltransferase; conditions: cited from earlier work

| SMILES | inhibition at 200 ppm (Two-spotted Spider Mite) [%] | inhibition at 400 ppm (Two-spotted Spider Mite) [%] | inhibition at 200 ppm (Aster Leafhopper) [%] | inhibition at 400 ppm (Aster Leafhopper) [%] | inhibition at 200 ppm (Beet Armyworm) [%] | inhibition at 400 ppm (Beet Armyworm) [%] | inhibition at 200 ppm (Southern Corn Rootworm) [%] | inhibition at 400 ppm (Southern Corn Rootworm) [%] | LC50 (neonate tobacco budworm) [µg/mL] | inhibition at 50 ppm (Tobacco Budworm) [%] | inhibition at 400 ppm (Tobacco Budworm) [%] | inhibition at 200 ppm (Rootknot Nematode) [%] | inhibition at 400 ppm (Rootknot Nematode) [%] | inhibition at 200 ppm (German Cockroach; 168 h, 7 day) [%] | inhibition at 400 ppm (German Cockroach; 168 h, 7 day) [%] | inhibition at 200 ppm (German Cockroach; 504 h, 21 day) [%] | inhibition at 400 ppm (German Cockroach; 504 h, 21 day) [%] | inhibition at 200 ppm (Cotton Aphid) [%] | inhibition at 400 ppm (Cotton Aphid) [%] | inhibition at 50 ppm (Two-spotted Spider Mite) [%] | other results |
| --- | --- | --- | --- | --- | --- | --- | --- | --- | --- | --- | --- | --- | --- | --- | --- | --- | --- | --- | --- | --- | --- |
| CCC1CCCC(OC2CCC(N(C)C)C(C)O2)C(C)C(=O)C2=CC3C(C=CC4CC(OC5OC(C)C(O)C(OC)C5O)CC43)C2CC(=O)O1 (stereo not drawn) [A83543U] | 0 | 0 | 100 | 100 | 100 | 100 | 0 | 0 | 22 (≈ 31.3 µM) | 100 | 100 | 0 | 0 | 0 | 0 | 0 | 0 | 0 | 0 | – | – |
| CCC1CCCC(OC2CCC(N(C)C)C(C)O2)C(C)C(=O)C2=CC3C(C=C(C)C4CC(OC5OC(C)C(O)C(OC)C5OC)CC43)C2CC(=O)O1 (stereo not drawn) [A83543O] | 100 | 100 | 100 | 100 | 100 | 100 | 0 | 0 | 1.4 (≈ 1.91 µM) | – | 100 | 0 | 0 | 0 | 0 | 20 | 100 | 0 | 100 | – | inhibition at 200 ppm (Tobacco Budworm): 100%; mortality at 5 ppm (adult stable fly; 5 ppm): 100% |
| CCC1CCCC(OC2CCC(N(C)C)C(C)O2)C(C)C(=O)C2=CC3C(C=CC4CC(OC5OC(C)C(O)C(OC)C5OC)CC43)C2CC(=O)O1 (stereo not drawn) [A83543K] | 90 | 100 | 100 | 100 | 100 | 100 | 0 | 100 | 3.5 (≈ 4.88 µM) | – | 100 | 0 | 0 | 0 | 0 | 0 | 80 | 0 | 0 | – | inhibition at 200 ppm (Tobacco Budworm): 100%; % mortality (blowfly larvae; 2.5 ppm): 40%; mortality at 2.5 ppm (adult stable fly; 2.5 ppm): 90% |
| CCC1CCCC(OC2CCC(NC)C(C)O2)C(C)C(=O)C2=CC3C(C=CC4CC(OC5OC(C)C(O)C(OC)C5OC)CC43)C2CC(=O)O1 (stereo not drawn) [N-demethyl-K, N-demethyl-A83543K] | – | 100 | 100 | 100 | 100 | 100 | – | 60 | 9.8 (≈ 13.9 µM) | 100 | 100 | – | 100 | 0 | 0 | 20 | 60 | 0 | 0 | 0 | – |
| Nc1ncnc2c1ncn2[C@@H]1O[C@H](C[C@@H](N)CC[C@H](N)C(=O)O)[C@@H](O)[C@H]1O [Sinefungin] | – | – | – | – | – | – | – | – | – | – | – | – | – | – | – | – | – | – | – | – | inhibition of histamine N-methyltransferase [1]: effective in inhibiting; inhibition of macrocin O-methyltransferase [2]: effective in inhibiting; inhibition of O-methyltransferase in S. avermitilis [3]: effective in inhibiting; inhibition of norepinephrine N-methyltransferase [4]: effective in inhibiting; inhibition of catechol O-methyltransferase [5]: effective in inhibiting |
| CCC1CCCC(OC2CCC(N(C)C)C(C)O2)C(C)C(=O)C2=CC3C(C=CC4CC(OC5OC(C)C(O)C(O)C5OC)CC43)C2CC(=O)O1 (stereo not drawn) [A83543P] | – | 100 | 0 | 0 | 100 | 100 | 0 | 0 | > 64 | 0 | 100 | 0 | 0 | 0 | 0 | 20 | 0 | 0 | 0 | 100 | % mortality (blowfly larvae; 10.0 ppm): 10%; mortality at 10 ppm (adult stable fly): 90% |
| COC1C(OC2CC3C=CC4C5CC(=O)OC(C)CCCC(OC6CCC(N(C)C)C(C)O6)C(C)C(=O)C5=CC4C3C2)OC(C)C(O)C1OC (stereo not drawn) [A83543Y] | – | 100 | 60 | 80 | 80 | 100 | 0 | 0 | 20 (≈ 28.4 µM) | 0 | 100 | – | – | 0 | 0 | – | – | 0 | 0 | 0 | % mortality (blowfly larvae; 10.0 ppm): 100%; mortality at 10 ppm (adult stable fly): 90% |
| CCC1CCCC(OC2CCC(N(C)C)C(C)O2)C(C)C(=O)C2=CC3C(C=C(C)C4CC(OC5OC(C)C(O)C(O)C5OC)CC43)C2CC(=O)O1 (stereo not drawn) [A83543W] | – | 80 | 0 | 0 | 0 | 60 | 0 | 0 | > 64 | 0 | 100 | 0 | 0 | 0 | 0 | 20 | 0 | 0 | 0 | 0 | % mortality (blowfly larvae; 10.0 ppm): 0%; mortality at 10 ppm (adult stable fly): 40% |
